Reference: BigSolDB 2.1

C[C@@H]1CC[C@H]2[C@@H](C)C(=O)O[C@@H]3O[C@@]4(C)CC[C@@H]1[C@]32OO4
solubility (mole fraction)
Details | 283.15 K | 288.15 K | 293.15 K | 298.15 K | 303.15 K | 308.15 K | 313.15 K | 318.15 K | 323.15 K
in acetone | 0.00388 | 0.0051 | 0.00673 | 0.00863 | 0.0114 | 0.0145 | 0.0181 | 0.0223 | 0.0278
in acetonitrile | 0.000198 | 0.000257 | 0.000356 | 0.000518 | 0.000723 | 0.00103 | 0.00143 | 0.00196 | 0.0027
in chloroform | 0.0487 | 0.0613 | 0.0795 | 0.101 | 0.127 | 0.157 | 0.193 | 0.236 | 0.287
in cyclohexane | 0.00044 | 0.000585 | 0.000745 | 0.00106 | 0.00137 | 0.00171 | 0.00209 | 0.00265 | 0.00341
in ethyl acetate | 0.00525 | 0.00786 | 0.0117 | 0.0153 | 0.0205 | 0.0282 | 0.0377 | 0.0499 | 0.0657
in methanol | 0.000559 | 0.000773 | 0.00111 | 0.00145 | 0.00195 | 0.00267 | 0.00375 | 0.00477 | 0.00622
in toluene | 0.0375 | 0.0435 | 0.052 | 0.0603 | 0.0711 | 0.0815 | 0.0937 | 0.107 | 0.122
